Results as given in patent publication US20250263370A1 (Tay Therapeutics Limited, priority 2022, published 2025).
Values joined by “and” are separate entries in the source; they are usually repeats but may differ in a detail not shown here. Identical values can stand only once. “Also recorded” adds a separate entry of the source.

System: collagen-induced arthritis
Assay: Collagen-induced arthritis (CIA) model in rats: body weight, paw volume, clinical scores, clinical observations; as to Average detailed clinical score, left hind limb: key of the grades not given here; as to Average detailed clinical score, right hind limb: key of the grades not given here; as to Detailed Clinical Scores, left forelimb: key of the grades not given here; as to Detailed Clinical Scores, left hind limb: key of the grades not given here; as to Detailed Clinical Scores, right forelimb: key of the grades not given here; as to Detailed Clinical Scores, right hind limb: key of the grades not given here; as to Detailed Clinical Scores, score: key of the grades not given here; as to Mean overall clinical score ± SD: key of the grades not given here; as to Overall clinical score: key of the grades not given here
Conditions: for Mean animal paw volume ± SD: group mean; for Detailed Clinical Scores, left forelimb / Detailed Clinical Scores, left hind limb / Detailed Clinical Scores, right forelimb / Detailed Clinical Scores, right hind limb / Detailed Clinical Scores, score: individual animals ID 1-8; for Overall clinical score: individual animals #1-8

## C[C@@H]1C[C@H]2[C@@H]3CCC4=CC(=O)C=C[C@]4(C)[C@@]3(F)[C@@H](O)C[C@]2(C)[C@@]1(O)C(=O)CO [dexamethasone]
CIA rats, Day 0, left hind paw (L)
  Average animal paw volume percent change: 0.00%
CIA rats, Day 0, left paw, individual animals
  Animal paw volume Day 0 L: 1.35 mL and 1.31 mL and 1.39 mL and 1.33 mL and 1.30 mL (2×) and 1.34 mL and 1.36 mL
CIA rats, Day 0, right hind paw (R)
  Average animal paw volume percent change: 0.00%
CIA rats, Day 0, right paw, individual animals
  Animal paw volume Day 0 R: 1.34 mL and 1.30 mL (2×) and 1.38 mL and 1.35 mL and 1.29 mL and 1.36 mL and 1.37 mL
CIA rats, Day 6, left hind paw (L)
  Average animal paw volume percent change: −3.37%
CIA rats, Day 6, left paw, individual animals
  Animal paw volume Day 6 L: 1.31 mL and 1.29 mL (3×) and 1.34 mL and 1.26 mL (2×) and 1.28 mL
CIA rats, Day 6, right hind paw (R)
  Average animal paw volume percent change: −3.26%
CIA rats, Day 6, right paw, individual animals
  Animal paw volume Day 6 R: 1.30 mL (3×) and 1.28 mL (2×) and 1.34 mL and 1.27 mL and 1.26 mL
CIA rats, Day 12, left hind paw (L)
  Average animal paw volume percent change: −4.94%
CIA rats, Day 12, left paw, individual animals
  Animal paw volume Day 12 L: 1.21 mL (2×) and 1.37 mL and 1.28 mL (2×) and 1.22 mL and 1.30 mL and 1.29 mL
CIA rats, Day 12, right hind paw (R)
  Average animal paw volume percent change: −5.21%
CIA rats, Day 12, right paw, individual animals
  Animal paw volume Day 12 R: 1.25 mL (2×) and 1.26 mL (2×) and 1.37 mL and 1.27 mL and 1.18 mL and 1.29 mL
CIA rats, Day 13, left hind paw (L)
  Average animal paw volume percent change: −3.57%
CIA rats, Day 13, left paw, individual animals
  Animal paw volume Day 13 L: 1.23 mL and 1.24 mL and 1.40 mL and 1.29 mL (2×) and 1.30 mL and 1.25 mL and 1.31 mL
CIA rats, Day 13, right hind paw (R)
  Average animal paw volume percent change: −4.08%
CIA rats, Day 13, right paw, individual animals
  Animal paw volume Day 13 R: 1.26 mL and 1.27 mL and 1.38 mL and 1.25 mL and 1.28 mL and 1.21 mL and 1.31 mL and 1.29 mL
CIA rats, Day 14, left hind paw (L)
  Average animal paw volume percent change: −4.60%
CIA rats, Day 14, left paw, individual animals
  Animal paw volume Day 14 L: 1.24 mL (3×) and 1.39 mL and 1.27 mL and 1.28 mL and 1.29 mL and 1.25 mL
CIA rats, Day 14, right hind paw (R)
  Average animal paw volume percent change: −5.07%
CIA rats, Day 14, right paw, individual animals
  Animal paw volume Day 14 R: 1.26 mL (4×) and 1.38 mL and 1.23 mL and 1.20 mL and 1.29 mL
CIA rats, Day 15, left hind paw (L)
  Average animal paw volume percent change: −5.47%
CIA rats, Day 15, left paw, individual animals
  Animal paw volume Day 15 L: 1.23 mL and 1.21 mL and 1.36 mL and 1.28 mL and 1.26 mL and 1.16 mL and 1.33 mL and 1.27 mL
CIA rats, Day 15, right hind paw (R)
  Average animal paw volume percent change: −5.41%
CIA rats, Day 15, right paw, individual animals
  Animal paw volume Day 15 R: 1.25 mL and 1.24 mL and 1.36 mL and 1.27 mL (2×) and 1.14 mL and 1.32 mL and 1.26 mL
CIA rats, Day 18, left hind paw (L)
  Average animal paw volume percent change: −3.01%
CIA rats, Day 18, left paw, individual animals
  Animal paw volume Day 18 L: 1.28 mL and 1.22 mL and 1.45 mL and 1.31 mL and 1.29 mL and 1.18 mL and 1.34 mL and 1.30 mL
CIA rats, Day 18, right hind paw (R)
  Average animal paw volume percent change: −3.14%
CIA rats, Day 18, right paw, individual animals
  Animal paw volume Day 18 R: 1.28 mL and 1.44 mL and 1.31 mL and 1.29 mL (2×) and 1.34 mL
CIA rats, Day 19, left hind paw (L)
  Average animal paw volume percent change: −3.33%
CIA rats, Day 19, left paw, individual animals
  Animal paw volume Day 19 L: 1.28 mL (2×) and 1.22 mL and 1.44 mL and 1.30 mL (2×) and 1.19 mL and 1.33 mL
CIA rats, Day 19, right hind paw (R)
  Average animal paw volume percent change: −3.57%
CIA rats, Day 19, right paw, individual animals
  Animal paw volume Day 19 R: 1.27 mL (2×) and 1.22 mL and 1.44 mL and 1.31 mL and 1.18 mL and 1.32 mL and 1.30 mL
CIA rats, Day 21, left hind paw (L)
  Average animal paw volume percent change: −3.56%
CIA rats, Day 21, left paw, individual animals
  Animal paw volume Day 21 L: 1.26 mL and 1.22 mL and 1.43 mL and 1.31 mL (2×) and 1.30 mL (2×) and 1.18 mL
CIA rats, Day 21, right hind paw (R)
  Average animal paw volume percent change: −3.51%
CIA rats, Day 21, right paw, individual animals
  Animal paw volume Day 21 R: 1.26 mL and 1.22 mL and 1.43 mL and 1.31 mL and 1.30 mL (2×) and 1.18 mL and 1.32 mL
CIA rats, daily P.O. for 21 days
  signs of disease over the 21-day period: No animals in group 3 (dexamethasone) ever received a score indicating that they exhibited symptoms of disease; also recorded: never exhibited any signs of disease
CIA rats, daily P.O. for 21 days, listed as Dexamethasone
  effect on hind paw volume: effective at controlling paw volume; also recorded: effective at preventing any change in paw volume throughout the entire 21-day period
CIA rats, daily P.O., day 12
  animals showing signs of disease: No animals
Day 0, L paw
  Mean animal paw volume ± SD: 1.33 mL
Day 0, L paw, individual animals
  Animal paw volume percent change: 0.00%
Day 0, R paw
  Mean animal paw volume ± SD: 1.33 mL
Day 0, R paw, individual animals
  Animal paw volume percent change: 0.00%
Day 0, CIA rats
  Average detailed clinical score, left forelimb: 0.00
  Average detailed clinical score, left hind limb: 0.00
  Average detailed clinical score, right forelimb: 0.00
  Average detailed clinical score, right hind limb: 0.00
  Average detailed clinical score, score: 0.00
  Mean overall clinical score ± SD: 0 ± 0
  Detailed Clinical Scores, left forelimb: 0
  Detailed Clinical Scores, left hind limb: 0
  Detailed Clinical Scores, right forelimb: 0
  Detailed Clinical Scores, right hind limb: 0
  Detailed Clinical Scores, score: 0
  Overall clinical score: 0
Day 6, L paw
  Mean animal paw volume ± SD: 1.29 mL
Day 6, L paw, individual animals
  Animal paw volume percent change: −2.97% and −1.53% and −3.61% and −3.02% and −3.09% and −3.08% and −4.12% and −5.51%
Day 6, R paw
  Mean animal paw volume ± SD: 1.29 mL
Day 6, R paw, individual animals
  Animal paw volume percent change: −3.00% and −1.16% and −2.91% and −3.72% and −1.56% and −2.70% and −5.90% and −5.13%
Day 6, CIA rats
  Average detailed clinical score, left forelimb: 0.00
  Average detailed clinical score, left hind limb: 0.00
  Average detailed clinical score, right forelimb: 0.00
  Average detailed clinical score, right hind limb: 0.00
  Average detailed clinical score, score: 0.00
  Mean overall clinical score ± SD: 0 ± 0
  Detailed Clinical Scores, left forelimb: 0
  Detailed Clinical Scores, left hind limb: 0
  Detailed Clinical Scores, right forelimb: 0
  Detailed Clinical Scores, right hind limb: 0
  Detailed Clinical Scores, score: 0
  Overall clinical score: 0
Day 12, L paw
  Mean animal paw volume ± SD: 1.27 mL
Day 12, L paw, individual animals
  Animal paw volume percent change: −10.41% and −7.66% and −1.44% and −3.40% and −1.54% and −6.54% and −3.00% and −5.51%
Day 12, R paw
  Mean animal paw volume ± SD: 1.26 mL
Day 12, R paw, individual animals
  Animal paw volume percent change: −6.74% and −3.09% and −0.73% and −7.43% and −1.56% and −9.27% and −7.01% and −5.86%
Day 12, CIA rats
  Average detailed clinical score, left forelimb: 0.00
  Average detailed clinical score, left hind limb: 0.00
  Average detailed clinical score, right forelimb: 0.00
  Average detailed clinical score, right hind limb: 0.00
  Average detailed clinical score, score: 0.00
  Mean overall clinical score ± SD: 0 ± 0
  Detailed Clinical Scores, left forelimb: 0
  Detailed Clinical Scores, left hind limb: 0
  Detailed Clinical Scores, right forelimb: 0
  Detailed Clinical Scores, right hind limb: 0
  Detailed Clinical Scores, score: 0
  Overall clinical score: 0
Day 13, L paw
  Mean animal paw volume ± SD: 1.28 mL
Day 13, L paw, individual animals
  Animal paw volume percent change: −8.92% and −5.36% and 0.72% and −3.02% and 0.00% and −4.23% and −2.25% and −5.51%
Day 13, R paw
  Mean animal paw volume ± SD: 1.28 mL
Day 13, R paw, individual animals
  Animal paw volume percent change: −5.99% and −2.32% and 0.36% and −7.43% and −0.78% and −6.95% and −3.69% and −5.86%
